From publication PMC7217877, “N-AS-triggered SPMs are direct regulators of microglia in a model of Alzheimer’s disease” (Nature Communications, 2020)
“And” between values parts separate entries of the source, which are not always exact repeats. Identical values can stand only once.

Legend:
[1] = tested on: APP/PS1 mice; test: thioflavin S staining of Aβ plaques in cortex and hippocampus (Fig 6a); assay type: in vivo, mouse; conditions: APP/PS1 + N-AS, individual values
Protocol: Thioflavin S (Sigma-Aldrich) staining was carried out according to previously described procedures. We used 6E10 (mouse, 1:100, Signet, SIG39300), anti-20G10 (mouse, 1:1000, provided by D. R. Howlett, GlaxoSmithKline, Harlow, Essex, UK) for Aβ42, anti-G30 (rabbit, 1:1000, provided by D. R. Howlett) for Aβ40, SMA (mouse, 1:400, Sigma-Aldrich, A2547), AT8 (mouse, 1:500, Thermo Fisher Scientific, MN1020), Caspase-3 (mouse, 1:200, Novus Biologicals, NB100-56708), ac-S565 (rabbit, 1:100), COX2 (mouse, 1:250, Thermo Fisher Scientific, 35-8200), Iba1 (rabbit, 1:500, Wako, 019-19941 and goat, Abcam, ab5076), NeuN (mouse, 1:500, Millipore, MAB177), GFAP (rabbit, 1:500, Dako, N1506 and chicken, 1:500, Abcam, ab4674), and Lamp1 (mouse, 1:200, Abcam, ab24170). The sections were analyzed with a laser-scanning confocal microscope (FV3000; Olympus) or with a BX51 microscope (Olympus). MetaMorph software (Molecular Devices) was used to quantification. Three-dimensional reconstruction of microglia was recorded and analyzed using IMARIS software (Bitplane)[11]. For the analysis of age-dependent microglial COX2^+ CX3CR1^+ cells in WT and APP/PS1 mice, COX2 (rabbit, 1:100, Abcam, ab15191) and CX3CR1 (mouse, 1:100, BioLegend, 149008) antibody were used and the images were acquired on Alexa 488 and APC Channel with performed using Operetta CLS and Analysis Software 4.5 (Perkin-Elmer). […]

[2] = tested on: APP/PS1 mice; test: mRNA levels of NEP, MMP9, IDE, CD36 in microglia (Supplementary Fig 5c); assay type: in vivo, mouse; parameters: CD36 mRNA level in microglia / NEP mRNA level in microglia / MMP9 mRNA level in microglia / IDE mRNA level in microglia: scale not given here
Protocol: Transgenic mouse lines over-expressing the hAPP695swe (APP) and presenilin-1M146V (PS1) mutations were originated from GlaxoSmithKline (Harlow, UK)[32] and maintained as described previously. We purchased 5×FAD mice from Jackson Labs (Stock number. 34840-JAX). Because APP/PS1 and 5xFAD mice show sex differences in disease progression, we used only male mice. To examine possible therapeutic effect of N-AS and aspirin in APP/PS1 mice, the N-AS (30 mg kg^−1, Sigma-Aldrich, 01912) was injected daily s.c. for 8 weeks to 7-months-old APP/PS1 mice until the age of 9 months, and aspirin (2 mg kg^−1, Sigma-Aldrich, A5376)[33] was administrated orally to 7-months-old APP/PS1 mice for 8 weeks. Also, to confirm possible therapeutic efficacy of N-AS in 5×FAD, the N-AS (30 mg kg^−1, Sigma-Aldrich, 01912) was injected daily s.c. for 4 weeks to 3-months-old 5×FAD mice until the age of 4 months. Block randomization method was used to allocate the animals to experimental groups. To eliminate the bias, we were blinded in experimental progress such as data collection and data analysis. Mice were housed at temperature of 22 °C and a 12 h day/12 h night cycle with free access to tap water and food pellets. All protocols were approved by the Kyungpook National University Institutional Animal Care and Use Committee.
For total RNA extraction from the microglia derived from WT, APP/PS1, APP/PS1 mice treated with N-AS, and APP/PS1 mice treated with aspirin, the cells were isolated from the cortex of WT, APP/PS1, APP/PS1 mice treated with N-AS, or aspirin using the methods described above. Total RNA was isolated using the kit components according to the manufacturer’s instructions (RNeasy mini kit, 74134, QIAGEN). cDNA was synthesized from 5 μg of total RNA using a commercially available kit (Takara). Quantitative real-time PCR was performed using a Corbett research RG-6000 real-time PCR instrument. Primers are described in Supplementary Table 5.

[3] = APP/PS1 + N-AS, individual values, sFig 5c

CCCCCCCCCCCCC/C=C/[C@@H](O)[C@H](CO)NC(C)=O [N-AS, N-((2S,3R,E)-1,3-Dihydroxyoctadec-4-en-2-yl)acetamide]
area occupied by Aβ plaques (thioflavin S) ([1]; Cortex): 0.5468 and 0.5931 and 0.5106 and 0.2602 and 0.3052 and 0.2223 and 0.2101 and 0.1051
area occupied by Aβ plaques (thioflavin S) ([1]; Hippocampus): 0.3692 and 0.3742 and 0.26 and 0.2921 and 0.4067 and 0.08652 and 0.2333 and 0.1243
CD36 mRNA level in microglia [2, 3]: 0.97 and 0.75 and 0.78 and 0.69 and 0.81 and 0.87 and 0.79 and 0.61
IDE mRNA level in microglia [2, 3]: 0.68 and 0.56 and 0.55 and 0.48 and 0.82 and 0.81 and 0.71 and 0.78 and 0.77
MMP9 mRNA level in microglia [2, 3]: 0.87 and 0.47 and 0.35 and 0.38 and 0.69 and 0.52 and 0.57 and 1.05 and 0.8
NEP mRNA level in microglia [2, 3]: 0.96 and 0.5 and 0.52 and 0.57 and 0.56 and 0.59 and 0.64 and 0.85 and 0.88
CD36 expression ([2]; APP/PS1 treated with N-AS): enhanced
expression of Aβ degrading enzymes (NEP, MMP9, IDE) ([2]; WT, APP/PS1 vehicle, APP/PS1 N-AS): remained unchanged between the groups
